# Experiments:
# soybean = test: Test C pre-/postemergence herbicide test; assay type: in vivo, Glycine max
# How it was run: (§1)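 Herbicidal effect was judged by eye 13 to 15 days after treatment in the greenhouse, using a 0–100 scale against controls. Chemicals in a non-phytotoxic solvent with surfactant were sprayed onto planted loam/sand soil or onto plants 2 to 18 cm tall in a peat-based growing medium.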
# pigweed = test: Test C pre-/postemergence herbicide test; assay type: in vivo, Amaranthus retroflexus
# How it was run: as §1
# crabgrass, large = test: Test C pre-/postemergence herbicide test; assay type: in vivo, Digitaria sanguinalis
# How it was run: as §1
# ducksalad = test: Test B flooded paddy test; assay type: in vivo, Heteranthera limosa; details: 500 g ai/ha, Flood; scale of 0 to 100 where 0 is no effect and 100 is complete control
# How it was run: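 Visual ratings from 0, meaning no effect, up to 100, meaning complete control, were made by comparison with untreated controls 13 to 15 days after treatment. Test compounds went straight into floodwater standing 3 cm over the soil of pots holding 2-leaf seedlings.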
# ryegrass, Italian = test: Test C pre-/postemergence herbicide test; assay type: in vivo, Lolium multiflorum
# How it was run: as §1
# nutsedge, yellow = test: Test C pre-/postemergence herbicide test; assay type: in vivo, Cyperus esculentus
# How it was run: as §1
# giant foxtail = test: Test A pre-/postemergence herbicide test; assay type: in vivo, Setaria faberii
# How it was run: (§2)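 Both application timings used compounds in a non-phytotoxic solvent plus surfactant. Pre-emergence: soil sprayed directly after seeding into loam/sand. Post-emergence: foliage of 2–10 cm seedlings (1–2 leaves) sprayed. Injury rated ~10 days later, 0–100.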
# lambsquarters = test: Test C pre-/postemergence herbicide test; assay type: in vivo, Chenopodium album
# How it was run: as §1
# johnsongrass = test: Test C pre-/postemergence herbicide test; assay type: in vivo, Sorghum halepense
# How it was run: as §1
# corn = test: Test C pre-/postemergence herbicide test; assay type: in vivo, Zea mays
# How it was run: as §1
# barnyardgrass = test: Test A pre-/postemergence herbicide test; assay type: in vivo, Echinochloa crus-galli
# How it was run: as §2
# [1] = Postemergence, 31 g ai/ha, scale 0 to 100 (0 no effect, 100 complete control)
# [2] = Postemergence, 62 g ai/ha, scale 0 (no effect) to 100 (complete control)
# [3] = Postemergence, 125 g ai/ha, scale 0 to 100 (0 no effect, 100 complete control)
# [4] = Postemergence, 250 g ai/ha, scale 0 to 100 (0 no effect, 100 complete control)
# [5] = Preemergence, 31 g ai/ha, scale 0 to 100, 0 is no effect and 100 is complete control
# [6] = Preemergence, 62 g ai/ha, scale 0 to 100 (0 no effect, 100 complete control)
# [7] = Preemergence, 125 g ai/ha, scale 0 to 100 (0 no effect, 100 complete control)
# [8] = 125 g ai/ha, visual rating, 0 to 100 scale, 0 no effect, 100 complete control, approximately 10 days, preemergence
# [9] = Postemergence, 125 g ai/ha, 0 to 100 scale, 0 is no effect, 100 is complete control
# [10] = preemergence, 500 g ai/ha, 0 to 100 scale, 0 is no effect and 100 is complete control
# [11] = Postemergence, 500 g ai/ha, 0 to 100 scale (0 no effect, 100 complete control)
# [12] = Preemergence, 125 g ai/ha, 0 to 100 scale where 0 is no effect and 100 is complete control
structure (smiles),measurement,setting,value
O=C1NCC(c2ccc(C(F)(F)F)cc2)C1C(=O)Nc1cccc(F)c1F (racemic) [Compound 202],"Plant response rating, Soybean",soybean; [1],0
same,"Plant response rating, Soybean",soybean; [2],0
same,"Plant response rating, Soybean",soybean; [3],5
same,"Plant response rating, Soybean",soybean; [4],10
same,Soybean plant response rating,soybean; [5],0
same,Soybean plant response rating,soybean; [6],25
same,"Plant response rating, Soybean",soybean; [7],0
same,"Plant response rating (scale of 0 to 100), Soybean","soybean; Preemergence, 250 g ai/ha",10
same,"Plant response rating, Pigweed",pigweed; [1],80
same,"Plant response rating, Pigweed",pigweed; [2],80
same,"Plant response rating, Pigweed",pigweed; [3],85
same,"Plant response rating, Pigweed",pigweed; [4],85
same,Pigweed plant response rating,pigweed; [5],85
same,Pigweed plant response rating,pigweed; [6],85
same,"Plant response rating, Pigweed",pigweed; [7],90
same,"Plant response rating (scale of 0 to 100), Pigweed","pigweed; Preemergence, 250 g ai/ha",100
same,"Plant response rating, Crabgrass, Large","crabgrass, large; [1]",30
same,"Plant response rating, Crabgrass, Large","crabgrass, large; [2]",50
same,"Plant response rating, Crabgrass, Large","crabgrass, large; [3]",60
same,"Plant response rating, Crabgrass, Large","crabgrass, large; [4]",75
same,"Crabgrass, Large plant response rating","crabgrass, large; [5]",90
same,"Crabgrass, Large plant response rating","crabgrass, large; [6]",95
same,"Plant response rating, Crabgrass, Large","crabgrass, large; [7]",98
same,"Plant response rating (scale of 0 to 100), Crabgrass, Large","crabgrass, large; Preemergence, 250 g ai/ha",98
same,"Plant response rating, Ducksalad",ducksalad,100
same,"Plant response rating, Ryegrass, Italian","ryegrass, Italian; [1]",0
same,"Plant response rating, Ryegrass, Italian","ryegrass, Italian; [2]",0
same,"Plant response rating, Ryegrass, Italian","ryegrass, Italian; [3]",5
same,"Plant response rating, Ryegrass, Italian","ryegrass, Italian; [4]",35
same,"Ryegrass, Italian plant response rating","ryegrass, Italian; [5]",0
same,"Ryegrass, Italian plant response rating","ryegrass, Italian; [6]",30
same,"Plant response rating, Ryegrass, Italian","ryegrass, Italian; [7]",30
same,"Plant response rating (scale of 0 to 100), Ryegrass, Italian","ryegrass, Italian; Preemergence, 250 g ai/ha",5
same,"Plant response rating, Nutsedge, Yellow","nutsedge, yellow; [1]",0
same,"Plant response rating, Nutsedge, Yellow","nutsedge, yellow; [2]",0
same,"Plant response rating, Nutsedge, Yellow","nutsedge, yellow; [3]",0
same,"Plant response rating, Nutsedge, Yellow","nutsedge, yellow; [4]",0
same,"Nutsedge, Yellow plant response rating","nutsedge, yellow; [5]",0
same,"Nutsedge, Yellow plant response rating","nutsedge, yellow; [6]",0
same,"Plant response rating, Nutsedge, Yellow","nutsedge, yellow; [7]",0
same,"Plant response rating (scale of 0 to 100), Nutsedge, Yellow","nutsedge, yellow; Preemergence, 250 g ai/ha",0
same,"Plant response rating, Foxtail, Giant",giant foxtail; [8],90
same,"Plant response rating, Foxtail, Giant",giant foxtail; [9],90
same,"Foxtail, Giant plant response rating (0 to 100 scale, 0 is no effect, 100 is complete control)","giant foxtail; Postemergence, 500 g ai/ha",90
same,"Plant response rating, Foxtail, Giant",giant foxtail; [10],90
same,"Plant response rating, Lambsquarters",lambsquarters; [1],70
same,"Plant response rating, Lambsquarters",lambsquarters; [2],80
same,"Plant response rating, Lambsquarters",lambsquarters; [3],80
same,"Plant response rating, Lambsquarters",lambsquarters; [4],85
same,Lambsquarters plant response rating,lambsquarters; [5],80
same,Lambsquarters plant response rating,lambsquarters; [6],90
same,"Plant response rating, Lambsquarters",lambsquarters; [7],90
same,"Plant response rating (scale of 0 to 100), Lambsquarters","lambsquarters; Preemergence, 250 g ai/ha",100
same,"Plant response rating, Johnsongrass",johnsongrass; [1],0
same,"Plant response rating, Johnsongrass",johnsongrass; [2],20
same,"Plant response rating, Johnsongrass",johnsongrass; [3],25
same,"Plant response rating, Johnsongrass",johnsongrass; [4],25
same,Johnsongrass plant response rating,johnsongrass; [5],10
same,Johnsongrass plant response rating,johnsongrass; [6],60
same,"Plant response rating, Johnsongrass",johnsongrass; [7],70
same,"Plant response rating (scale of 0 to 100), Johnsongrass","johnsongrass; Preemergence, 250 g ai/ha",85
same,"Plant response rating, Corn",corn; [1],0
same,"Plant response rating, Corn",corn; [2],0
same,"Plant response rating, Corn",corn; [3],10
same,"Plant response rating, Corn",corn; [4],35
same,Corn plant response rating,corn; [5],20
same,Corn plant response rating,corn; [6],85
same,"Plant response rating, Corn",corn; [7],75
same,"Plant response rating (scale of 0 to 100), Corn","corn; Preemergence, 250 g ai/ha",85
same,"Plant response rating, Barnyardgrass",barnyardgrass; [8],90
same,"Plant response rating, Barnyardgrass",barnyardgrass; [9],80
same,"Barnyardgrass plant response rating (0 to 100 scale, 0 is no effect, 100 is complete control)","barnyardgrass; Postemergence, 500 g ai/ha",90
same,"Plant response rating, Barnyardgrass",barnyardgrass; [10],90
O=C1NCC(c2cc(F)cc(F)c2)C1C(=O)Nc1ccccc1Cl (racemic) [Compound 280],Soybean plant response rating,soybean; [5],0
same,Soybean plant response rating,soybean; [6],5
same,"Plant response rating, Soybean",soybean; [7],0
same,"Plant response rating (scale of 0 to 100), Soybean","soybean; Preemergence, 250 g ai/ha",0
same,Pigweed plant response rating,pigweed; [5],10
same,Pigweed plant response rating,pigweed; [6],0
same,"Plant response rating, Pigweed",pigweed; [7],20
same,"Plant response rating (scale of 0 to 100), Pigweed","pigweed; Preemergence, 250 g ai/ha",20
same,"Crabgrass, Large plant response rating","crabgrass, large; [5]",85
same,"Crabgrass, Large plant response rating","crabgrass, large; [6]",90
same,"Plant response rating, Crabgrass, Large","crabgrass, large; [7]",95
same,"Plant response rating (scale of 0 to 100), Crabgrass, Large","crabgrass, large; Preemergence, 250 g ai/ha",100
same,"Plant response rating, Ducksalad",ducksalad,100
same,"Ryegrass, Italian plant response rating","ryegrass, Italian; [5]",0
same,"Ryegrass, Italian plant response rating","ryegrass, Italian; [6]",0
same,"Plant response rating, Ryegrass, Italian","ryegrass, Italian; [7]",0
same,"Plant response rating (scale of 0 to 100), Ryegrass, Italian","ryegrass, Italian; Preemergence, 250 g ai/ha",5
same,"Nutsedge, Yellow plant response rating","nutsedge, yellow; [5]",0
same,"Nutsedge, Yellow plant response rating","nutsedge, yellow; [6]",0
same,"Plant response rating, Nutsedge, Yellow","nutsedge, yellow; [7]",0
same,"Plant response rating (scale of 0 to 100), Nutsedge, Yellow","nutsedge, yellow; Preemergence, 250 g ai/ha",100
same,"Plant response rating, Foxtail, Giant",giant foxtail; [9],70
same,"Plant response rating, Foxtail, Giant",giant foxtail; [11],80
same,"Plant response rating, Foxtail, Giant",giant foxtail; [12],90
same,"Plant response rating, Foxtail, Giant",giant foxtail; [10],90
same,Lambsquarters plant response rating,lambsquarters; [5],0
same,Lambsquarters plant response rating,lambsquarters; [6],0
same,"Plant response rating, Lambsquarters",lambsquarters; [7],10
same,"Plant response rating (scale of 0 to 100), Lambsquarters","lambsquarters; Preemergence, 250 g ai/ha",10
same,Johnsongrass plant response rating,johnsongrass; [5],0
same,Johnsongrass plant response rating,johnsongrass; [6],0
same,"Plant response rating, Johnsongrass",johnsongrass; [7],10
same,"Plant response rating (scale of 0 to 100), Johnsongrass","johnsongrass; Preemergence, 250 g ai/ha",10
same,Corn plant response rating,corn; [5],0
same,Corn plant response rating,corn; [6],0
same,"Plant response rating, Corn",corn; [7],0
same,"Plant response rating (scale of 0 to 100), Corn","corn; Preemergence, 250 g ai/ha",5
same,"Plant response rating, Barnyardgrass",barnyardgrass; [9],80
same,"Plant response rating, Barnyardgrass",barnyardgrass; [11],90
same,"Plant response rating, Barnyardgrass",barnyardgrass; [12],80
same,"Plant response rating, Barnyardgrass",barnyardgrass; [10],80
